# In patent US20250206724A1, “SUBSTITUTED 3-AMINO INDAZOLE DERIVATIVES AS KINASE INHIBITORS” (NERVIANO MEDICAL SCIENCES S.R.L., priority 2022, published 2025):
# Counter-ions that a name gives are not always drawn.
# Target: T1, CDK11A (Homo sapiens, UniProt Q9UQ88)
# T1 sequence (Q9UQ88 346-783): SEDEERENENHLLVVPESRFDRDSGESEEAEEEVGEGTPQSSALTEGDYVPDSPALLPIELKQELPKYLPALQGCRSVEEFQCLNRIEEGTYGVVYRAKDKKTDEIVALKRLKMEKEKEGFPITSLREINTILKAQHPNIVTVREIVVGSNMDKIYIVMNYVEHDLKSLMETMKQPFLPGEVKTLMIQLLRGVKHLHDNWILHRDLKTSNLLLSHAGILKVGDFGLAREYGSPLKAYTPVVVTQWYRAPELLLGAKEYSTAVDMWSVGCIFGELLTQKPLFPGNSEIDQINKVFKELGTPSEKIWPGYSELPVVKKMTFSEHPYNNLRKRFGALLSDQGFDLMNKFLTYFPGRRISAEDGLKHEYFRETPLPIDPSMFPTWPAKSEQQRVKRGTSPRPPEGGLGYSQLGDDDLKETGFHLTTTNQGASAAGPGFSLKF
# Details: displacement of SNS-032-Atto590 probe (0.002 μM) from CDK11A-p58 (0.032 uM), fluorescence polarization
# Protocol: Biochemical Kinase Inhibition Assay on CDK11 in Displacement Assay Format
# Displacement Assay Format
# Fluorescence Polarization (FP) experiments were carried out at room temperature using no-binding black 384-well microplates (Corning, NY), in 50 mM Tris HCl, pH 8, 10 mM MgCl2, 1 mM DTT, 1 mM CHAPS in a final volume of 60 μl. The plate reader was the Pherastar microplate reader (BMG). Polarization values were read using excitation and emission wavelengths of 590 and 675 nm, respectively. All FP values are expressed as mP units.
# Compounds were 4-folds serially diluted in 100% DMSO and added directly to the CDK11A-p58 solution using the pin tool (V & P Scientific): 0.2 ul of the different compound concentrations in 20 ul of enzyme solution. After an incubation of 30 minutes at r.t., 40 ul of probe solution were added. […] The Pherastar reading is performed after 15 minutes of all components incubation. For each assay, high controls (equivalent to 0% displacement) contain probe, CDK11A-p58, and 0.33% DMSO, whereas low controls (equivalent to 100% displacement) contain only probe and 0.33% DMSO. Controls are used for the Z′ and signal to background evaluation.
# The data per each molecule are analyzed by Prism SW or an internally customized version of the SW package “Assay Explorer” which provides sigmoidal fittings of the ten-dilution curves for DC50 determination using a 4 parameters logistic equation:
# where x is the logarithm of the inhibitor concentration, y is the response; y starts at bottom and goes to top with a sigmoid shape.
# 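Also: compound preincubated 30 min with CDK11A-p58, then probe added and polarization (mP) read 15 min later, 0% displacement is probe plus enzyme, 100% is probe alone.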
row,Structure (SMILES),DC50
1,"CN1CCC(C(=O)Nc2n[nH]c3ccc(-c4c(F)cc(O)cc4F)cc23)CC1 [compound 138, N-[5-(2,6-Difluoro-4-hydroxyphenyl)-1H-indazol-3-yl]-1-methylpiperidine-4-carboxamide trifluoroacetate]",376 nM
2,"CCCCOc1ccc2[nH]nc(NC(=O)[C@@H]3CCCNC3)c2c1 [cpd 231, (3R)-N-(5-Butoxy-1H-indazol-3-yl)piperidine-3-carboxamide hydrochloride]",71 nM
3,"CNC1CC(C(=O)Nc2n[nH]c3ccc(-c4cc(C#N)ccc4Cl)cc23)C1 (centres unmarked) [compound 146, N-[5-(2-Chloro-5-cyanophenyl)-1H-indazol-3-yl]-3-(methylamino)cyclobutanecarboxamide hydrochloride]",23 nM
4,"CN1CCC(C(=O)Nc2n[nH]c3ccc(-c4c(F)cc(F)cc4F)cc23)CC1 [compound 123, 1-Methyl-N-[5-(2,4,6-trifluorophenyl)-1H-indazol-3-yl]piperidine-4-carboxamide hydrochloride]",665 nM
5,"Nc1ccc(-c2ccc3[nH]nc(NC(=O)C4CCCNC4)c3c2)c(Cl)c1 (centres unmarked) [cpd 1, N-[5-(4-Amino-2-chlorophenyl)-1H-indazol-3-yl]piperidine-3-carboxamide dihydrochloride]",49 nM
6,"N#Cc1ccc(Cl)c(-c2ccc3[nH]nc(NC(=O)C4CCCCNC4)c3c2)c1 (centres unmarked) [compound 183, N-[5-(2-Chloro-5-cyanophenyl)-1H-indazol-3-yl]azepane-3-carboxamide hydrochloride]",73 nM
7,"CN1CCC(C(=O)Nc2n[nH]c3ccc(-c4ccc(F)c(F)c4F)cc23)CC1 [compound 128, 1-Methyl-N-[5-(2,3,4-trifluorophenyl)-1H-indazol-3-yl]piperidine-4-carboxamide hydrochloride]",468 nM
8,"N#Cc1ccc(Cl)c(-c2ccc3[nH]nc(NC(=O)[C@@H]4CCC5(CCCCC5)NC4)c3c2)c1 (single isomer, unassigned) [compound 207, (3-)-N-[5-(2-Chloro-5-cyanophenyl)-1H-indazol-3-yl]-1-azaspiro[5.5]undecane-3-carboxamide]",229 nM
9,"CN1CCC(C(=O)Nc2n[nH]c3ccc(-c4ccc(F)cc4F)cc23)CC1 [compound 124, N-[5-(2,4-Difluorophenyl)-1H-indazol-3-yl]-1-methylpiperidine-4-carboxamide hydrochloride]",637 nM
10,"CN1CCC(C(=O)Nc2n[nH]c3ccc(-c4ccc(O)c(C#N)c4)cc23)CC1 [compound 135, N-[5-(3-Cyano-4-hydroxyphenyl)-1H-indazol-3-yl]-1-methylpiperidine-4-carboxamide hydrochloride]",786 nM
11,"CCCCN1CCC(C(=O)Nc2n[nH]c3ccc(-c4cc(C#N)ccc4Cl)cc23)CC1 [compound 140, 1-Butyl-N-[5-(2-chloro-5-cyanophenyl)-1H-indazol-3-yl]piperidine-4-carboxamide hydrochloride]",68 nM
12,"Cc1ccc(-c2ccc3[nH]nc(NC(=O)C4CCN(C)CC4)c3c2)c(F)c1F [compound 132, N-[5-(2,3-Difluoro-4-methylphenyl)-1H-indazol-3-yl]-1-methylpiperidine-4-carboxamide hydrochloride]",409 nM
13,"CNC1CCC(C(=O)Nc2n[nH]c3ccc(-c4c(Cl)cccc4Cl)cc23)CC1 (centres unmarked) [compound 144, N-[5-(2,6-Dichlorophenyl)-1H-indazol-3-yl]-4-(methylamino)cyclohexanecarboxamide hydrochloride]",110 nM
14,"COc1c(F)cc(F)c(-c2ccc3[nH]nc(NC(=O)C4CCN(C)CC4)c3c2)c1F [compound 131, 1-Methyl-N-[5-(2,4,6-trifluoro-3-methoxyphenyl)-1H-indazol-3-yl]piperidine-4-carboxamide hydrochloride]",438 nM
15,"C[C@@H]1CC[C@@H](C(=O)Nc2n[nH]c3ccc(-c4c(Cl)cccc4Cl)cc23)CN1 [compound 178, (3R,6R)-N-[5-(2,6-Dichlorophenyl)-1H-indazol-3-yl]-6-methylpiperidine-3-carboxamide trifluoroacetate]",28 nM
16,"O=C(Nc1n[nH]c2ccc(-c3c(F)cccc3Cl)cc12)[C@@H]1CCCNC1 [compound 172, (3R)-N-[5-(2-Chloro-6-fluorophenyl)-1H-indazol-3-yl]piperidine-3-carboxamide hydrochloride]",42 nM

# Now from value to compound:
row,DC50,Structure (SMILES)
1,45 nM,"COC(=O)c1ccc(Cl)c(-c2ccc3[nH]nc(NC(=O)[C@@H]4CCCNC4)c3c2)c1Cl [cpd 57, Methyl 2,4-dichloro-3-(3-{[(3R)-piperidin-3-ylcarbonyl]amino}-1H-indazol-5-yl)benzoate hydrochloride]"
2,163 nM,"Cc1nc(-c2ccc(Cl)c(-c3ccc4[nH]nc(NC(=O)[C@@H]5CCCNC5)c4c3)c2)no1 [cpd 60, (3R)-N-{5-[2-Chloro-5-(5-methyl-1,2,4-oxadiazol-3-yl)phenyl]-1H-indazol-3-yl}piperidine-3-carboxamide dihydrochloride]"
3,36 nM,"O=C(Nc1n[nH]c2ccc(-c3cc(Cl)ccc3Cl)cc12)[C@@H]1CCCNC1 [cpd 13, (3R)-N-[5-(2,5-Dichlorophenyl)-1H-indazol-3-yl]piperidine-3-carboxamide hydrochloride]"
4,20 nM,"O=C(Nc1n[nH]c2ccc(-c3cc(-c4ncon4)ccc3Cl)cc12)[C@@H]1CCCNC1 [cpd 58, (3R)-N-{5-[2-Chloro-5-(1,2,4-oxadiazol-3-yl)phenyl]-1H-indazol-3-yl}piperidine-3-carboxamide dihydrochloride]"
5,988 nM,"CN1CCC(C(=O)Nc2n[nH]c3ccc(-c4ccc(F)cc4)cc23)CC1 [cpd 87, N-[5-(4-Fluorophenyl)-1H-indazol-3-yl]-1-methylpiperidine-4-carboxamide hydrochloride]"
6,33 nM,"O=C(Nc1n[nH]c2ccc(-c3cc(O)ccc3Cl)cc12)[C@@H]1CCCNC1 [cpd 41, (3R)-N-[5-(2-Chloro-5-hydroxyphenyl)-1H-indazol-3-yl]piperidine-3-carboxamide hydrochloride]"
7,164 nM,"COC(=O)c1cc(-c2ccc3[nH]nc(NC(=O)[C@@H]4CCCNC4)c3c2)c(F)cc1F [cpd 50, Methyl 2,4-difluoro-5-(3-{[(3R)-piperidin-3-ylcarbonyl]amino}-1H-indazol-5-yl)benzoate hydrochloride]"
8,135 nM,"CC(C)(CO)CN1CCC(C(=O)Nc2n[nH]c3ccc(-c4c(Cl)cccc4Cl)cc23)CC1 [cpd 71, N-[5-(2,6-Dichlorophenyl)-1H-indazol-3-yl]-1-(3-hydroxy-2,2-dimethylpropyl)piperidine-4-carboxamide]"
9,45 nM,"COC(=O)c1ccc(C#N)c(-c2ccc3[nH]nc(NC(=O)[C@@H]4CCCNC4)c3c2)c1 [cpd 40, Methyl 4-cyano-3-(3-{[(3R)-piperidin-3-ylcarbonyl]amino}-1H-indazol-5-yl)benzoate hydrochloride]"
10,592 nM,"CN1CCC(C(=O)Nc2n[nH]c3ccc(-c4cc(C(F)(F)F)ccc4Cl)cc23)CC1 [cpd 94, N-{5-[2-Chloro-5-(trifluoromethyl)phenyl]-1H-indazol-3-yl}-1-methylpiperidine-4-carboxamide hydrochloride]"
11,130 nM,"O=C(Nc1n[nH]c2ccc(-c3cc(Cl)ccc3C(F)(F)F)cc12)C1CCCNC1 (centres unmarked) [cpd 15, N-{5-[5-Chloro-2-(trifluoromethyl)phenyl]-1H-indazol-3-yl}piperidine-3-carboxamide trifluoroacetate]"
12,42 nM,"O=C(Nc1n[nH]c2ccc(-c3cc(F)ccc3Cl)cc12)[C@@H]1CCCNC1 [cpd 52, (3R)-N-[5-(2-Chloro-5-fluorophenyl)-1H-indazol-3-yl]piperidine-3-carboxamide hydrochloride]"
13,502 nM,"Cc1ccc(Cl)c(-c2ccc3[nH]nc(NC(=O)C4CCN(C)CC4)c3c2)c1 [cpd 86, N-[5-(2-Chloro-5-methylphenyl)-1H-indazol-3-yl]-1-methylpiperidine-4-carboxamide hydrochloride]"
14,131 nM,"NC(=O)c1ccc(Cl)c(-c2ccc3[nH]nc(NC(=O)C4CCCNC4)c3c2)c1 (centres unmarked) [cpd 9, N-[5-(5-Carbamoyl-2-chlorophenyl)-1H-indazol-3-yl]piperidine-3-carboxamide hydrochloride]"
15,173 nM,"CN1CCC(C(=O)Nc2n[nH]c3ccc(-c4cccc(F)c4F)cc23)CC1 [cpd 99, N-[5-(2,3-Difluorophenyl)-1H-indazol-3-yl]-1-methylpiperidine-4-carboxamide hydrochloride]"
16,150 nM,"CN1CCC(C(=O)Nc2n[nH]c3ccc(-c4c(Cl)cc(Cl)cc4Cl)cc23)CC1 [cpd 108, 1-Methyl-N-[5-(2,4,6-trichlorophenyl)-1H-indazol-3-yl]piperidine-4-carboxamide hydrochloride]"
17,16 nM,"CC(=O)c1ccc(Cl)c(-c2ccc3[nH]nc(NC(=O)[C@@H]4CCNC4)c3c2)c1 [cpd 38, (3R)-N-[5-(5-Acetyl-2-chlorophenyl)-1H-indazol-3-yl]pyrrolidine-3-carboxamide hydrochloride]"
18,151 nM,"COCC(C)N1CCC(C(=O)Nc2n[nH]c3ccc(-c4c(F)cccc4Cl)cc23)CC1 (centres unmarked) [cpd 67, N-[5-(2-Chloro-6-fluorophenyl)-1H-indazol-3-yl]-1-(1-methoxypropan-2-yl)piperidine-4-carboxamide hydrochloride]"
19,139 nM,"N#Cc1ccc(Cl)c(-c2ccc3[nH]nc(NC(=O)C4CCNCC4)c3c2)c1 [cpd 61, N-[5-(2-Chloro-5-cyanophenyl)-1H-indazol-3-yl]piperidine-4-carboxamide hydrochloride]"
